{
  "source": "paper PMC3506129",
  "about": "(Journal of Medicinal Chemistry, 2012)",
  "key": {"CHK2": {"target": "CHK2 (Homo sapiens, UniProt O96017)", "sequence (O96017 whole entry, species assumed)": "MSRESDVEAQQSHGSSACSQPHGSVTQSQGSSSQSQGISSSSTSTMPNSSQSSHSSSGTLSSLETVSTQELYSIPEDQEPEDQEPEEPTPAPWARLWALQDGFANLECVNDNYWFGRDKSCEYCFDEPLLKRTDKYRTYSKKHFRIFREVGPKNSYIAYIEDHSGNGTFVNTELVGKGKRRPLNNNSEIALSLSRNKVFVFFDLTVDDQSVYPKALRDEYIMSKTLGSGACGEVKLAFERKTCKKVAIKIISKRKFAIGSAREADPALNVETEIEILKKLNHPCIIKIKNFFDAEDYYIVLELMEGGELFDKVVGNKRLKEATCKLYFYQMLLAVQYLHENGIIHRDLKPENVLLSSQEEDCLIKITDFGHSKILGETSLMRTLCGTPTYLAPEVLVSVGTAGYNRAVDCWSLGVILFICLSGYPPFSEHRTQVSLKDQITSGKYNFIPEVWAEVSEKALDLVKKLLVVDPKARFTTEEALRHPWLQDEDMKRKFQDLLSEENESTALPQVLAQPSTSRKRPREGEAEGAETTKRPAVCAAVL", "assay": "CHK2 DELFIA kinase assay", "type": "biochemical", "details": "data not shown"}, "CDK1": {"target": "CDK1 (Homo sapiens, UniProt P06493)", "sequence (P06493 whole entry, looked up)": "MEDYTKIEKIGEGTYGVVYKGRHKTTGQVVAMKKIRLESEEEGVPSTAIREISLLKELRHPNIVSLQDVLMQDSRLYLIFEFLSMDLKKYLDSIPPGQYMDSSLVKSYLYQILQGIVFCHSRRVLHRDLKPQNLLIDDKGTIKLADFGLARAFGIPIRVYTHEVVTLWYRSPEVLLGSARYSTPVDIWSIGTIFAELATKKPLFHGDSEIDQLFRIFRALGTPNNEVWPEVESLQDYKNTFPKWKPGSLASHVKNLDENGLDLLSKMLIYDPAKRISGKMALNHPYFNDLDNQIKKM", "details": "data not shown"}, "CaCo-2 permeability": {"assay": "CaCo-2 permeability", "type": "in vitro ADME", "details": "human"}, "[1]": {"test_system": "CHK1 S296 autophosphorylation in SW620 human colon cancer xenografts", "assay": "Gemcitabine-induced CHK1 phosphorylation in SW620 xenografts", "type": "in vivo, mouse", "details": "single po dose at MTD (20: 160, 26: 300 mg/kg); 12 h after gemcitabine"}, "[2]": {"assay": "Plasma and tumor drug levels in SW620 xenograft-bearing mice", "type": "in vivo, mouse", "details": "po dose at MTD"}, "[3]": {"test_system": "panel of 140 representative kinases", "assay": "Radiometric kinase panel summary, 1 μM", "type": "biochemical, human", "details": "of 140 kinases"}, "AMPK": {"test_system": "AMPK", "assay": "radiometric kinase profiling", "type": "biochemical", "details": "1 μM"}, "121 kinases": {"test_system": "121 kinases", "details": "against 89 out of the 121 enzymes, screen at 10 μM"}, "[4]": {"test_system": "pS296 CHK1 in HT29 colon tumor xenografts", "details": "single doses 100–300 mg/kg po; cited from earlier work"}, "[5]": {"test_system": "HT29 human colon cancer xenograft", "details": "cited from earlier work; for tumor growth delay (days), 26: HT29, q7d × 3, 26 75 mg/kg po alone"}, "[6]": {"test_system": "SW620 human colon cancer xenograft", "details": "SW620, q4d × 3, gemcitabine 100 mg/kg iv + 26 75 mg/kg po; cited from earlier work"}, "[7]": {"test_system": "Calu6 human non-small cell lung cancer xenograft", "details": "Calu6, q7d × 3, gemcitabine 100 mg/kg iv + 26 75 mg/kg po; cited from earlier work"}, "[8]": {"details": "10 mg/kg iv, 6 h, 9 normalized from 5 mg/kg, 24 from 1 mg/kg, 20 from full PK"}},
  "note": "Where two headings read alike, the source gives them in different places. Marks after values point to notes of the source that are not given here.",
  "data": [
    {"compound": "COC(=O)c1cnc(Nc2cnc(C#N)c(O[C@@H]3CCNC3)n2)cc1N(C)C", "note": "[Compound 10]", "values": [
      {"measurement": "selectivity for CHK1 inhibition over CHK2", "setting": "CHK2", "result": "greater than 100 fold"},
      {"measurement": "selectivity for CHK1 inhibition over CDK1", "setting": "CDK1", "result": "greater than 100 fold"}
    ]},
    {"compound": "CNc1cc(Nc2cnc(C#N)c(O[C@H](C)CN(C)C)n2)ncc1C(F)(F)F", "note": "[Compound 15]", "values": [
      {"measurement": "efflux ratio", "setting": "CaCo-2 permeability", "result": "> 6"}
    ]},
    {"compound": "CNc1cc(Nc2cnc(C#N)c(O[C@H](C)CN(C)C)n2)ncc1-c1cnn(C)c1", "note": "[Compound 20, (R)-3-((1-(Dimethylamino)propan-2-yl)oxy)-5-((5-(1-methyl-1H-pyrazol-4-yl)-4-(methylamino)pyridin-2-yl)amino)pyrazine-2-carbonitrile]", "values": [
      {"measurement": "inhibition of CHK1 S296 autophosphorylation, 12 h", "setting": "[1]", "result": "less powerful effect"},
      {"measurement": "fall in drug concentration between 6 and 12 h", "setting": "[2]", "result": "ca. 20 fold"},
      {"measurement": "mouse plasma level iv, 1 h", "setting": "10 mg/kg iv, 1 h, 9 normalized from 5 mg/kg, 24 from 1 mg/kg, 20 from full PK", "result": "910 (±23) ^h nM"},
      {"measurement": "mouse plasma level iv, 6 h", "setting": "[8]", "result": "45 (±10) ^h nM"},
      {"measurement": "mouse plasma level po, 1 h", "setting": "10 mg/kg po, 1 h", "result": "555 (±82) ^h nM"},
      {"measurement": "mouse plasma level po, 6 h", "setting": "10 mg/kg po, 6 h", "result": "57 (±7) ^h nM"}
    ]},
    {"compound": "CNc1cc(Nc2cnc(C#N)c(O[C@@H]3CCN(C)C3)n2)ncc1-c1cnn(C)c1", "note": "[Compound 24]", "values": [
      {"measurement": "mouse plasma level iv, 6 h", "setting": "[8]", "result": "<20 ^i, ^j nM"}
    ]},
    {"compound": "COc1cc(Nc2cnc(C#N)c(O[C@H](C)CN(C)C)n2)ncc1-c1cnn(C)c1", "note": "[Compound 26, (R)-3-((1-(Dimethylamino)propan-2-yl)oxy)-5-((4-methoxy-5-(1-methyl-1H-pyrazol-4-yl)pyridin-2-yl)amino)pyrazine-2-carbonitrile]", "values": [
      {"measurement": "inhibition of CHK1 S296 autophosphorylation, 12 h", "setting": "[1]", "result": "robust inhibition"},
      {"measurement": "fall in drug concentration between 6 and 12 h", "setting": "[2]", "result": "2–3 fold"},
      {"measurement": "number of enzymes strongly inhibited (>80%)", "setting": "[3]", "result": 7},
      {"measurement": "inhibition (strongly inhibited)", "setting": "AMPK", "result": "> 80", "unit": "%"},
      {"measurement": "enhancement in plasma levels at the 1 h time point relative to 20", "setting": "10 mg/kg, 1 h", "result": 2, "unit": "fold"},
      {"measurement": "selectivity for CHK1", "setting": "121 kinases", "result": "> 1000", "unit": "fold"},
      {"measurement": "duration of inhibition of gemcitabine-induced pS296 CHK1", "setting": "[4]", "result": "up to 24 h"},
      {"measurement": "tumor growth delay (days), 26", "setting": "[5]; gemcitabine experiment", "result": "–1.8 (±2.1) days"},
      {"measurement": "tumor growth delay (days), 26", "setting": "[5]; irinotecan experiment", "result": "0.30 (±1.4) days"},
      {"measurement": "tumor growth delay (days), combination", "setting": "[5]; HT29, q7d × 3, gemcitabine 100 mg/kg iv + 26 75 mg/kg po at 24 and 48 h", "result": "11.4 (±3.3) days"},
      {"measurement": "tumor growth delay (days), combination", "setting": "[5]; HT29, q7d × 3, irinotecan 12.5 mg/kg i.p. + 26 75 mg/kg po", "result": "13.5 (±2.4) days"},
      {"measurement": "tumor growth delay (days), combination", "setting": "[6]", "result": "6.0 (±2.4) days"},
      {"measurement": "tumor growth delay (days), combination", "setting": "[7]", "result": "15.9 (±2.5) days"}
    ]}
  ]
}
